Read-outs that look alike come from different tables or passages of the source.
Tests used:
[1] = tested on: HindIII-digested lambda DNA; test: DNA gel staining, comparison of compounds 7 and 8 (Example 4); settings: 200 and 20 ng/lane DNA
Description: The brightness, sensitivity, and spectral properties of two of the new unsymmetrical monomethincyanine dyes, compound 7 (SL-2833) and compound 8 (SL-2834), were compared by staining gels containing 200 ng/lane and 20 ng/lane of HindIII-digested lambda DNA. The gels were processed and imaged as described above in Example 2.

[2] = tested on: PstI-digested lambda DNA; test: Post electrophoretic staining of DNA in agarose gels (Example 2); settings: for detection of stained DNA at longer wavelengths: laser scanner, 532/580 filter set
Description: The absorption and emission spectra of the unsymmetrical monomethincyanine dyes of the invention are shifted to longer wavelengths relative to those of commonly used nucleic acid stains. […] Invitrogen Corp.) and imaged using different detection devices. PstI-digested lambda DNA (Cat. No. D1793; Sigma-Aldrich, St. Louis, Mo.) was resolved on agarose gels in the presence of TBE buffer, pH 8.3. Lanes were loaded with a total of either 500 ng or 100 ng of DNA (the loading buffer contained 0.05% bromophenol blue (w/v), 40% sucrose (w/v), 0.5% SDS (w/v), and 0.1 M EDTA, pH 8). The gels were run at 90 V for about 90 min. After electrophoresis, the gels were submerged in a solution of TBE buffer comprising 2 μM of 6 (SL-2791) or SG1 for 1 hr. After a quick rinse, the gels were imaged with 1) a 300 nm UV transilluminator (Cat. No. T2202; Sigma-Aldrich) or a 450 nm (blue light) transilluminator (Dark Reader™; Clare Chemical Research, Denver, Colo.) and a CCD camera imaging system (Gel Logic 100; Kodak Imaging, Rochester, N.Y.) equipped with a 535 nm or a 590 nm emission filter and 2) a laser scanner fluorescent image analyzer system (FLA-300; Fujifilm, Japan) equipped with excitation/emission filter sets of 473/520 nm or 532/580 nm.

[3] = tested on: HindIII-digested lambda DNA; test: Digestion of stained DNA (Example 7); type: biochemical; settings: 6557 bp band eluted from gel, restriction enzyme
Description: To determine whether the binding between DNA and an unsymmetrical monomethincyanine dye was strong enough to inhibit the digestion of the DNA, HindIII-digested lambda DNA (1 μg/lane) was resolved on an agarose gel (0.8%), as described above. The DNA was stained either during or after electrophoresis. The band-of-interest (e.g., the 6557 bp band) was excised from the gel using a blue light transilluminator [see FIG. 6A, the DNA was stained with 6 (SL-2791)]. DNA was eluted from the piece of agarose using a spin column (GenElute Agarose Spin Column, Cat. No. 5-6500; Sigma-Aldrich). The collected DNA was digested with an appropriate restriction enzyme, and the reaction products were analyzed on a new agarose gel (1.2%) using compound 9 (SL-2845). The left lane of FIG. 6B presents the undigested DNA and the right lane of FIG. 6B presents the digested products.

[4] = tested on: human alu-consnesus sequence; test: Real-time qPCR (Example 9); type: biochemical
Description: PCR was performed on human genomic DNA obtained from 0.16 million human peripheral blood leukocytes by direct lysis in a volume of 1 ml as described by Christopherson et al, PCR-Based Assay To Quantify Human Immunodeficiency Virus Type 1 DNA In Peripheral Blood Mononuclear Cells, 2000, J Clin Microbiol., pp. 630-634, Vol. 38. […] Additionally, a non-template control containing deionised water as sample was used. Two μl per sample were then used for real-time PCR as follows: PCR reactions were run in JumpStart™ ReadyMix™ (Sigma Aldrich, order number p2893), containing salt, buffer, Taq-DNA polymerase and deoxynucleotidetriphosphates in a final volume of 32 μl. PCR primers were added to a final concentration of 1 μM. To obtain optimal performance in real time PCR, the PCR mix was supplemented with additional MgCL2 to a final concentration of 3 mM. The DNA binding dye Nancy-520 was added to a final concentration of 200 nM. PCR primers mf39 (5′-[…]-3′) and mf40 (5′-[…]-3′) were used at a final concentration of 1 μM. These primers amplify a 133 base pair fragment of the human alu-consnesus sequence (see Clayerie et al, Alu alert, 1994, Nature, pp. 752, Vol. 371.) (available from the Genbank database: http://www.ncbi.nlm.nih.gov/Genbank/, entry nr: HSU14574). Because these repetitive sequences are highly abundant in the human genome, the PCR for alu sequences can be used to detect minute amounts of human DNA.
Real-time PCR was performed in a real-time PCR thermocycler (IQ-5, Biorad, Basel Switzerland) using the following cycling profile: Initial denaturation 94° C. 20 sec, followed for 40 cycles (94° C. 5 sec, 60° C. 5 sec, 72° C. 20 sec, 60° C. 60 sec with real-time monitoring). After cycling a melting curve analysis ranging from 55° C.-92° C. was performed with temperature increments of 0.5° C. and measurement intervals of 30 sec. Five different optical filter-sets were used for real-time PCR monitoring and melting-curve analysis according to the suppliers instructions (see table 1).
Data (FIG. 9A, 9C, 9D) were analyzed using the IQ5 software (version 2.0) or by linear regression analysis (FIG. 9B) using the statistical software GraphPad Prism version 5.01 (GraphPad Software, Inc., La Jolla, Calif.)
The first number, 485, indicates the center of the wavelength of light. The second number, 20 indicates the total breadth of wavelengths of light that can pass through it.

[5] = tested on: dsDNA; test: Binding specificity and fluorescence with dsDNA versus ssDNA
[6] = tested on: HindIII-digested lambda DNA and 0.2-10 kb RNA markers; test: Staining of DNA and RNA in gels (Example 5); settings: 200 ng/lane DNA, 1 μg/lane RNA; laser scanner 532/580 nm
Description: Gels were loaded with 200 ng/lane of HindIII-digested lambda DNA and 1 μg/lane of 0.2-10 kb RNA markers (Cat. No. R1386; Sigma-Aldrich). The RNA loading buffer contained 62.5% formamide (v/v), 1.14 M formaldehyde, 0.2 mg/ml bromophenol blue, 0.2 mg/ml xylene cyanol, and 1.25×MOPS-EDTA-sodium acetate buffer. After electrophoresis the gels were stained with compound 9 (SL-2845), SG1, or the RNA-specific stain SYBR® Green 2 (SG2; Invitrogen) and imaged as described above in Example 2.

[7] = tested on: DNA polymerase; test: Inhibition of DNA polymerase activity in qPCR; type: biochemical; settings: concentrations greater than 0.5 μM
[8] = tested on: DNA polymerase; settings: high concentrations (>0.5 μM); cited from earlier work
[9] = tested on: HindIII-digested lambda DNA; test: Determination of the lower limit of detection (Example 6); settings: 300 nm UV transilluminator, CCD camera, 590 nm emission filter
Description: HindIII-digested lambda DNA (200 ng/lane and 20 ng/lane) was resolved on agarose gels, as described above. EtBr was added to one gel such that the DNA was stained during electrophoresis; the other gels were stained with compound 6 (SL-2791), 7 (SL-2833), 8 (SL-2834), 9 (SL-2845), or SG1 after electrophoresis. Gels were imaged using a 300 nm UV transilluminator and a CCD camera with a 590 nm emission filter.

[10] = tested on: HindIII-digested lambda DNA; test: Prestaining of DNA during electrophoresis (Example 3)
Description: The ability of another of the new unsymmetrical monomethincyanine dyes, i.e., compound 7 (SL-2833), to stain DNA during electrophoresis (i.e., “prestain”) was compared to that of ethidium bromide (EtBr). For this, 1 μM of 7 (SL-2833) or EtBr was added to the heated agarose before the gel was poured. The gels were loaded with 200 ng/lane and 20 ng/lane of HindIII-digested lambda DNA (Cat. No. D9780; Sigma-Aldrich) and run at 90 V for about 90 min. After electrophoresis, the gels were imaged as described above in Example 2.

[11] = 1 μM in gel, UV transilluminator

For `Cc1ccc2c(c1)/C(=C/c1sc3ccccc3[n+]1CCO)C=C(c1ccccc1)N2C` [Compound 8], the “detection using the laser-based long wavelength imaging system” value [1] was “clearly detected” and the “fluorescence with blue light transilluminator and 590 nm filter as compared to UV transilluminator” value [1] was “reduced fluorescence”.

In the case of `CN1C(c2ccccc2)=C/C(=C\c2sc3ccccc3[n+]2CCCO)c2ccccc21` [Compound 6, 1-Methyl-4-[(2,3-dihydro-3-(3-hydroxypropyl)benzo-1,3-thiazol-2-yl)-methyliden]-2-phenyl-quinolinium perchlorate], the “brightness of stained DNA bands compared with SG1” value ([2]; 2 μM stain in TBE for 1 hr, under each detection condition) was “much brighter”, the “detection of stained DNA at longer wavelengths” value (“detection of stained DNA” for short) [2] was “could be detected at longer wavelengths” and the “enzymatic digestion of stained DNA” value [3] was “may be enzymatically digested”.

For `CN1C(c2ccccc2)=C/C(=C\c2sc3ccccc3[n+]2CCCCO)c2ccccc21` [Compound 9], the “robustness in DNA melt curve analysis” value ([4]; 55° C.-92° C. following PCR cycling) was “sufficiently robust”, the thermostability ([4]; PCR temperature cycles) was “high thermostability” and the “Performance of PCR in measuring Nancy-520 fluorescence” value (“Performance of PCR” for short) ([4]; filter-set CY3, 545/30X 585/20M) was “Filter set unsuitable (data not shown)”. For the same molecule, the “Performance of PCR” value ([4]; filter-set CY5, 630/30X 685/30M) was “Filter set unsuitable (data not shown)”, the “Performance of PCR” value ([4]; filter-set FAM, 485/20X 530/30M) was “Weak” and the “Performance of PCR” value ([4]; filter-set TXR, 575/30X 625/30M) was “Strong amplification signals (virtually”. The “PCR signal amplitudes at lower dye concentrations” value ([4]; lower concentrations than 2000 nm, data not shown) was “Suitable although slightly reduced signal amplitudes”, the “binding specificity for dsDNA” value [5] was “high binding specificity” and the “fluorescence in the presence of dsDNA” value [5] was “strong fluorescence signal”. The “fluorescence in the presence of ssDNA or in the absence of nucleic acids” value [5] was “only weak fluorescence”, the “staining intensity of DNA versus RNA” value [6] was “stained DNA more intensely than RNA” and the “inhibition of DNA polymerase activity” value [7] was “does not inhibit DNA polymerase activity”.

For `CCCN(CCCN(C)C)c1cc(/C=C2/Sc3ccccc3N2C)c2ccccc2[n+]1-c1ccccc1` [SG1], the “inhibition of DNA polymerase activity” value [8] is given as “inhibit DNA polymerase activity”, the “detection of stained DNA” value [2] is given as “not visible” and the “detection of stained DNA” value ([2]; listed as SYBR® Green 1) is given as “not detected”. The “lower limit of detection, DNA per lane” value [9] was “less than 1 ng”.

For `Cc1ccc2c(c1)/C(=C/c1sc3ccccc3[n+]1CCCO)C=C(c1ccccc1)N2C` [Compound 7], the “detection using the laser-based long wavelength imaging system” value [1] was “clearly detected”, the “fluorescence with blue light transilluminator and 590 nm filter as compared to UV transilluminator” value [1] was “reduced fluorescence” and the “background fluorescence at top of gels compared with EtBr” value [10, 11] was “lower background fluorescence”. For the same molecule, the “fluorescence of stained DNA bands compared with EtBr” value [10, 11] was “increased fluorescence” and the “imaging of stained DNA at longer wavelengths” value ([10]; laser scanner 473/520 and 532/580 nm filter sets, low levels of DNA = 20 ng/lane) was “readily imaged”.
